Values after ≈ are worked out from the molar mass of the structure shown.
Tests used:
Assay type in all cases: cell-based
C. albicans SN152 = experiment: MIC80 broth double-dilution assay; conditions: YPAD medium, 30° C., 24 h; parent strain of the erg11ΔΔ/erg3ΔΔ mutant
Experimental: (§1) The antifungal activities of the 24 azole-COX inhibitor hybrids were evaluated against a panel of 16 representative strains of different species of the genus Candida. Candida species cause both superficial and systemic infections. The panel included strains of C. albicans, C. glabrata, C. parapsilosis, C. tropicalis, C. guilliermondii, C. dubliniensis, and C. auris (Table S2). To evaluate antifungal activity, the minimal inhibitory concentration 80% (MIC80) values were determined, which were defined as the lowest drug concentrations with turbidity (measured at OD600) less than or equal to that of specific 1:5 dilutions of the growth control. As controls, FLC and VOR, were tested.
(§2) MIC80 values were determined using the broth microdilution method over a concentration range of 0.003-64 μg/mL. Orange circles represent C. albicans strains, yellow circles represent C. glabrata strains, and green circles represent C. parapsilosis, C. tropicalis, C. dubliniensis and C. auris. Cells were grown in YPAD medium at 30° C. (For C. auris strains 37° C.) 24 h. Each concentration was tested in triplicate, and results were confirmed in at least two independent experiments.
(§3) The clinically used FLC and VOR act primarily by preventing ergosterol biosynthesis via inhibition of CYP51. Analysis was done to determine whether fungal growth inhibition by the hybrids required the presence of the ERG11 gene that encodes for CYP51. The antifungal activities of hybrids 1 and 5 and of FLC and VOR were determined against an erg11ΔΔ/erg3ΔΔ mutant C. albicans strain and against C. albicans SN152 from which this double knockout strain was derived (Table S2). […] Yeast growth was followed at OD600 over 48 h in 96-well plates containing serial double dilutions of the tested hybrids.
(§4) C. albicans, C. glabrata, C. parapsilosis, C. guilliermondii, C. tropicalis, and C. dubliniensis MICs were determined using CLSI M27-A3 guidelines with minor modifications. Starter cultures were streaked from glycerol stock onto YPAD agar plates and grown for 24 h at 30° C. Colonies were suspended in 1 mL PBS and diluted to 1×10^−3 OD600 and then diluted 1:100 into fresh medium. Hybrids dissolved in DMSO were added to YPAD broth (32 μL stock solution in 1218 μL of YPAD broth), and serial double dilutions of hybrids in YPAD were prepared in flat-bottomed 96-well microplates (Corning) to enable testing of concentrations ranging from 64 μg/mL to 0.003 μg/mL. Control wells with yeast cells but no drug and blank wells containing only YPAD were prepared. An equal volume (100 μL) of yeast suspensions in YPAD broth was added to each well with the exceptions of the blank wells. MIC values (Tables S4-S6) were determined after 24 h at 30° C. by measuring the OD600 using a plate reader (Infinite M200 PRO, Tecan). MIC values were defined as the point at which the OD600 was reduced by >80% compared to the no-drug wells. Each concentration was tested in triplicate, and results were confirmed by two independent sets of experiments. FLC and VOR were used as control drugs.

[1] = test system: C. albicans 742 (erg11ΔΔ/erg3ΔΔ mutant C. albicans strain); experiment: MIC80 broth double-dilution assay, strain lacking CYP51; conditions: YPAD medium, 30° C., 24 h; erg11ΔΔ/erg3ΔΔ mutant lacking CYP51
Experimental: as §1, §3, §4

C. albicans ATCC 24433 = experiment: MIC80 broth double-dilution assay; conditions: YPAD medium, 30° C., 24 h
Experimental: as §1, §2, §4

C. albicans ATCC 90028 = experiment: MIC80 broth double-dilution assay; conditions: YPAD medium, 30° C., 24 h
Experimental: as §1, §2, §4

C. albicans P-87 = experiment: MIC80 broth double-dilution assay; conditions: YPAD medium, 30° C., 24 h
Experimental: as §1, §2, §4

C. albicans SC5314 = experiment: MIC80 broth double-dilution assay; conditions: YPAD medium, 30° C., 24 h
Experimental: as §1, §2, §4

C. dubliniensis T-99 = experiment: MIC80 broth double-dilution assay; conditions: YPAD medium, 30° C., 24 h
Experimental: as §1, §2, §4

[2] = test system: C. parapsilosis ATCC 22019; experiment: MIC80 broth double-dilution assay; conditions: YPAD medium, 30° C., 24 h
Experimental: as §1, §2, §4

C. tropicalis 660 = experiment: MIC80 broth double-dilution assay; conditions: YPAD medium, 30° C., 24 h
Experimental: as §1, §2, §4

C. guilliermondii T-47 = experiment: MIC80 broth double-dilution assay; conditions: YPAD medium, 30° C., 24 h
Experimental: as §1, §4

Structure (SMILES) | MIC80 against C. albicans SN152 (C. albicans SN152) [µg/mL] | MIC80 against C. albicans 742 [1] [µg/mL] | MIC80 against C. albicans 24433 (C. albicans ATCC 24433) [µg/mL] | MIC80 against C. albicans 90028 (C. albicans ATCC 90028) [µg/mL] | MIC80 against C. albicans P-87 (C. albicans P-87) [µg/mL] | MIC80 against C. albicans SC5314 (C. albicans SC5314) [µg/mL] | MIC80 against C. dubliniensis T-99 (C. dubliniensis T-99) [µg/mL] | MIC80 against C. parapsilosis 22019 [2] [µg/mL] | MIC80 against C. tropicalis 660 (C. tropicalis 660) [µg/mL] | MIC80 against C. guilliermondii T-47 (C. guilliermondii T-47) [µg/mL]
COc1ccc2cc([C@H](C)C(=O)NC[C@@](O)(Cn3cncn3)c3ccc(F)cc3F)ccc2c1 [Hybrid 12] | 2 (≈ 4.29 µM) | >64 | 4 (≈ 8.57 µM) | 4 (≈ 8.57 µM) | 4 (≈ 8.57 µM) | 2 (≈ 4.29 µM) | 32 (≈ 68.6 µM) | 4 (≈ 8.57 µM) | >64 | 32 (≈ 68.6 µM)
C[C@H](C(=O)NC[C@@](O)(Cn1cncn1)c1ccc(F)cc1F)c1cccc(C(=O)c2ccccc2)c1 [Hybrid 16] | >64 | >64 | >64 | >64 | >64 | >64 | 16 (≈ 32.6 µM) | >64 | >64 | >64
O=C(Cc1ccccc1Nc1c(Cl)cccc1Cl)NC[C@@](O)(Cn1cncn1)c1ccc(F)cc1F [Hybrid 24] | >64 | >64 | >64 | >64 | >64 | >64 | 2 (≈ 3.76 µM) | >64 | >64 | >64
O=C(NC[C@@](O)(Cn1cncn1)c1ccc(F)cc1F)c1cc(-c2ccc(F)cc2F)ccc1O [Hybrid 20] | 8 (≈ 16.4 µM) | 32 (≈ 65.8 µM) | 16 (≈ 32.9 µM) | 16 (≈ 32.9 µM) | 8 (≈ 16.4 µM) | 8 (≈ 16.4 µM) | 0.5 (≈ 1.03 µM) | 8 (≈ 16.4 µM) | >64 | >64
C[C@H](C(=O)NC[C@](O)(Cn1cncn1)c1ccc(F)cc1F)c1cccc(C(=O)c2ccccc2)c1 [Hybrid 13] | 2 (≈ 4.08 µM) | >64 | 4 (≈ 8.15 µM) | 2 (≈ 4.08 µM) | 4 (≈ 8.15 µM) | 2 (≈ 4.08 µM) | 64 (≈ 130 µM) | 8 (≈ 16.3 µM) | 16 (≈ 32.6 µM) | 32 (≈ 65.2 µM)
C[C@@H](C(=O)NC[C@@](O)(Cn1cncn1)c1ccc(F)cc1F)c1cccc(C(=O)c2ccccc2)c1 [Hybrid 15] | >64 | >64 | >64 | >64 | >64 | >64 | 16 (≈ 32.6 µM) | >64 | >64 | >64
C[C@@H](C(=O)NC[C@@](O)(Cn1cncn1)c1ccc(F)cc1F)c1ccc(-c2ccccc2)c(F)c1 [Hybrid 7] | 8 (≈ 16.6 µM) | 64 (≈ 133 µM) | 16 (≈ 33.3 µM) | 8 (≈ 16.6 µM) | 4 (≈ 8.32 µM) | 4 (≈ 8.32 µM) | 0.5 (≈ 1.04 µM) | 8 (≈ 16.6 µM) | 64 (≈ 133 µM) | 32 (≈ 66.6 µM)
CC(C)Cc1ccc([C@H](C)C(=O)NC[C@@](O)(Cn2cncn2)c2ccc(F)cc2F)cc1 [Hybrid 4] | 1 (≈ 2.26 µM) | >64 | 2 (≈ 4.52 µM) | 1 (≈ 2.26 µM) | 0.5 (≈ 1.13 µM) | 1 (≈ 2.26 µM) | 0.03 (≈ 0.0678 µM) | 8 (≈ 18.1 µM) | >64 | 16 (≈ 36.2 µM)
C[C@@H](C(=O)NC[C@](O)(Cn1cncn1)c1ccc(F)cc1F)c1cccc(C(=O)c2ccccc2)c1 [Hybrid 14] | 0.5 (≈ 1.02 µM) | >64 | 1 (≈ 2.04 µM) | 1 (≈ 2.04 µM) | 1 (≈ 2.04 µM) | 1 (≈ 2.04 µM) | 4 (≈ 8.15 µM) | 8 (≈ 16.3 µM) | 16 (≈ 32.6 µM) | 16 (≈ 32.6 µM)
C[C@H](C(=O)NC[C@@](O)(Cn1cncn1)c1ccc(F)cc1F)c1ccc(-c2ccccc2)c(F)c1 [Hybrid 8] | 64 (≈ 133 µM) | >64 | >64 | 64 (≈ 133 µM) | 64 (≈ 133 µM) | 32 (≈ 66.6 µM) | 2 (≈ 4.16 µM) | 64 (≈ 133 µM) | >64 | 64 (≈ 133 µM)
O=C(NC[C@@](O)(Cn1cncn1)c1ccc(F)cc1F)c1ccccc1O [Hybrid 22] | 8 (≈ 21.4 µM) | >64 | 16 (≈ 42.7 µM) | 8 (≈ 21.4 µM) | 16 (≈ 42.7 µM) | 8 (≈ 21.4 µM) | >64 | 8 (≈ 21.4 µM) | 32 (≈ 85.5 µM) | 16 (≈ 42.7 µM)
O=C(NC[C@@](O)(Cn1cncn1)c1ccc(F)cc1F)c1cccnc1Nc1cccc(C(F)(F)F)c1 [Hybrid 18] | 8 (≈ 15.4 µM) | 64 (≈ 123 µM) | 8 (≈ 15.4 µM) | 16 (≈ 30.9 µM) | 16 (≈ 30.9 µM) | 16 (≈ 30.9 µM) | 16 (≈ 30.9 µM) | 8 (≈ 15.4 µM) | >64 | >64
C[C@@H](C(=O)NC[C@](O)(Cn1cncn1)c1ccc(F)cc1F)c1ccc(-c2ccccc2)c(F)c1 [Hybrid 6] | 0.06 (≈ 0.125 µM) | >64 | 0.12 (≈ 0.25 µM) | 0.12 (≈ 0.25 µM) | 0.03 (≈ 0.0624 µM) | 0.03 (≈ 0.0624 µM) | 2 (≈ 4.16 µM) | 2 (≈ 4.16 µM) | 8 (≈ 16.6 µM) | 2 (≈ 4.16 µM)
